According to patent US20110201603A1, “Novel Acylaminobenzamide Derivatives” (Bayer CropScience AG, priority 2008, published 2011):

Legend:
[1] = system: tobacco cutworm (Spodoptera litura) larvae; experiment: Test against tobacco cutworm (Spodoptera litura) larvae, leaf dip; assay type: in vivo; conditions: active compound concentration of 100 ppm; third-instar larvae on sweet potato leaves; after 7 days
Protocol: (§1) Unless not mentioned otherwise, the test solutions were prepared as follows:
(§2) Containing as solvent: Dimethylformamide, 3 parts by weight; and as emulsifier: Polyoxyethylene alkyl phenyl ether, 1 part by weight
(§3) To prepare the test solution, 1 part by weight of an active compound is mixed with the above-mentioned amount of solvent containing the above-mentioned amount of emulsifier, and the mixture is diluted with water to the desired concentration.
The leaves of sweet potato were immersed in the test solution at the appropriate concentration, and the leaves were dried in air. The leaves were then placed in a petri dish having a diameter of 9 cm, and ten third-instar larvae of tobacco cutworm were released therein. The petri dish was placed in a temperature-controlled chamber at 25° C. After 2 days and 4 days sweet potato leaves were additionally added. After 7 days, the number of dead larvae was counted to calculate the insecticidal activity. An insecticidal activity of 100% means that all larvae were killed, whereas an insecticidal activity of 0% means that no larva was killed. In the current test, the results of two petri dishes for each partition were averaged.

[2] = system: cucurbit leaf beetle (Aulacophora femoralis); experiment: Test against cucurbit leaf beetle (Aulacophora femoralis), leaf dip; assay type: in vivo; conditions: active compound concentration of 100 ppm; second-instar larvae on cucumber leaves; after 7 days
Protocol: as §1, §2, §3
Cucumber leaves were immersed in the test solution at the appropriate concentration, and the leaves were dried in air. The leaves were then placed in a plastic cup containing sterilized black soil, and five second-instar larvae of cucurbit leaf beetle were released therein. The plastic cup was placed in a temperature-controlled chamber at 25° C. After 7 days, the number of dead larvae was counted, and thus the insecticidal activity was calculated. An insecticidal activity of 100% means that all beetles were killed, whereas an insecticidal activity of 0% means that no beetle was killed.

Row | SMILES | insecticidal activity [1] | insecticidal activity [2]
1 | O=C(Nc1c(Cl)cc(C(n2cc(Cl)cn2)(C(F)(F)F)C(F)(F)F)cc1Cl)c1cccc(NC(=O)c2cccnc2Cl)c1 [2-61] | 100% | 100%
2 | C#CCOC(c1cc(I)c(NC(=O)c2cccc(NC(=O)c3ccccc3)c2)c(I)c1)(C(F)(F)F)C(F)(F)F [1-79] | 100% | 100%
3 | CCc1cc(C(Oc2ccc(Br)cc2)(C(F)(F)F)C(F)(F)F)cc(C)c1NC(=O)c1cccc(NC(=O)c2cccnc2Cl)c1 [1-129] | 100% | 100%
4 | CCCOC(c1cc(I)c(NC(=O)c2cccc(NC(=O)c3ccc(C)nc3Cl)c2)c(I)c1)(C(F)(F)F)C(F)(F)F [1-63] | 100% | –
5 | O=C(Nc1c(Cl)cc(C(n2cc(Cl)cn2)(C(F)(F)F)C(F)(F)F)cc1Cl)c1cccc(NC(=O)c2ccccc2F)c1 [2-32] | 100% | 100%
6 | CCc1cc(C(Oc2ccc(Cl)cn2)(C(F)(F)F)C(F)(F)F)cc(C)c1NC(=O)c1cccc(NC(=O)c2cccnc2Cl)c1 [1-173] | 100% | 100%
7 | Cc1cc(C(Oc2ccc(Br)cc2)(C(F)(F)F)C(F)(F)F)cc(C)c1NC(=O)c1cccc(NC(=O)c2cccnc2Cl)c1 [1-166] | 100% | 100%
8 | CCc1cc(C(Oc2cccc(C(F)(F)F)c2)(C(F)(F)F)C(F)(F)F)cc(C)c1NC(=O)c1cccc(NC(=O)c2cccnc2Cl)c1 [1-110] | 100% | –
9 | Cc1cc(C(n2ncnn2)(C(F)(F)F)C(F)(F)F)cc(C)c1NC(=O)c1cccc(NC(=O)c2cccnc2Cl)c1 [2-154] | 100% | –
10 | CCOC(c1cc(I)c(NC(=O)c2cccc(NC(=O)CCCl)c2)c(I)c1)(C(F)(F)F)C(F)(F)F [1-23] | 100% | –
11 | CCc1cc(C(n2cnc(Cl)n2)(C(F)(F)F)C(F)(F)F)cc(C)c1NC(=O)c1cccc(NC(=O)c2cccnc2Cl)c1 [2-183] | 100% | 100%
12 | CCc1cc(C(Oc2cccc(Cl)c2)(C(F)(F)F)C(F)(F)F)cc(C)c1NC(=O)c1cccc(NC(=O)c2cccnc2Cl)c1 [1-108] | 100% | 100%
13 | CCc1cc(C(N2CC=CCC2)(C(F)(F)F)C(F)(F)F)cc(C)c1NC(=O)c1cccc(NC(=O)c2cccnc2Cl)c1 [2-180] | 100% | 100%
14 | CCc1cc(C(Oc2ccc(F)cc2)(C(F)(F)F)C(F)(F)F)cc(C)c1NC(=O)c1cccc(NC(=O)c2cccnc2Cl)c1 [1-128] | 100% | 100%
15 | CCc1cc(C(n2cc(Cl)cn2)(C(F)(F)F)C(F)(F)F)cc(C)c1NC(=O)c1cccc(NC(=O)c2ccccc2F)c1 [2-30] | 100% | –
16 | CCc1cc(C(Oc2ccccc2)(C(F)(F)F)C(F)(F)F)cc(C)c1NC(=O)c1cccc(NC(=O)c2cccnc2Cl)c1 [1-105] | – | 100%
17 | Cc1cc(C(n2cc(Br)c(Br)n2)(C(F)(F)F)C(F)(F)F)cc(C)c1NC(=O)c1cccc(NC(=O)c2cccnc2Cl)c1 [2-115] | 100% | –
18 | CCc1cc(C(n2cc(Cl)cn2)(C(F)(F)F)C(F)(F)F)cc(C)c1NC(=O)c1cccc(NC(=O)c2ccc(F)cc2F)c1 [2-38] | 100% | –
19 | CCc1cc(C(n2cc(Cl)cn2)(C(F)(F)F)C(F)(F)F)cc(C)c1NC(=O)c1cccc(NC(=O)c2cccc(F)c2)c1 [2-35] | 100% | –
20 | Cc1cc(C(n2ccc(C(F)(F)F)n2)(C(F)(F)F)C(F)(F)F)cc(C)c1NC(=O)c1cccc(NC(=O)c2cccnc2F)c1 [2-98] | 100% | –
21 | CCc1cc(C(ON=Cc2ccc(C)cc2)(C(F)(F)F)C(F)(F)F)cc(C)c1NC(=O)c1cccc(NC(=O)c2cccnc2Cl)c1 [1-149] | 100% | –
22 | CCc1cc(C(n2cc(Cl)cn2)(C(F)(F)F)C(F)(F)F)cc(C)c1NC(=O)c1cccc(NC(=O)c2cccc(F)c2F)c1 [2-37] | 100% | –
23 | CCc1cc(C(N2CC=CC2)(C(F)(F)F)C(F)(F)F)cc(C)c1NC(=O)c1cccc(NC(=O)c2cccnc2Cl)c1 [2-170] | 100% | –
24 | CCc1cc(C(n2cncn2)(C(F)(F)F)C(F)(F)F)cc(C)c1NC(=O)c1cccc(NC(=O)c2cccnc2Cl)c1 [2-149] | 100% | –
25 | Cc1cc(C(n2cc(I)cn2)(C(F)(F)F)C(F)(F)F)cc(C)c1NC(=O)c1cccc(NC(=O)c2cccnc2Cl)c1 [2-95] | 100% | –

Row | SMILES | insecticidal activity [1] | insecticidal activity [2]
26 | Cc1cc(C(Oc2ccc(Cl)cc2)(C(F)(F)F)C(F)(F)F)ccc1NC(=O)c1cccc(NC(=O)c2cccnc2Cl)c1 [1-201] | 100% | –
27 | Cc1cc(C(n2ccc(C(F)(F)C(F)(F)F)n2)(C(F)(F)F)C(F)(F)F)cc(C)c1NC(=O)c1cccc(NC(=O)c2cccnc2Cl)c1 [2-107] | 100% | –
28 | CCc1cc(C(ON=Cc2ccc(OC)cc2)(C(F)(F)F)C(F)(F)F)cc(C)c1NC(=O)c1cccc(NC(=O)c2cccnc2Cl)c1 [1-150] | 100% | –
29 | Cc1cc(C(n2cc(Cl)c(C(F)(F)F)n2)(C(F)(F)F)C(F)(F)F)cc(C)c1NC(=O)c1cccc(NC(=O)c2cccnc2Cl)c1 [2-118] | 100% | –
30 | CSCCOC(c1cc(I)c(NC(=O)c2cccc(NC(=O)c3cccnc3Cl)c2)c(I)c1)(C(F)(F)F)C(F)(F)F [1-104] | 100% | –
31 | Cc1cc(C(n2nc(C(F)(F)F)cc2C(F)(F)F)C(F)(F)F)cc(C)c1NC(=O)c1cccc(NC(=O)c2cccnc2Cl)c1 (centres unmarked) [2-123, N-{3-[(4-{1-[3,5-bis(trifluoromethyl)-1H-pyrazol-1-yl)-2,2,2-trifluoroethyl}-2,6-dimethylphenyl)carbamoyl]phenyl}-2-chloropyridine-3-carboxamide] | 100% | –
32 | CCc1cc(C(n2cc(Cl)cn2)(C(F)(F)F)C(F)(F)F)cc(C)c1NC(=O)c1cccc(NC(=O)c2cc(F)ccc2F)c1 [2-39] | 100% | –
33 | Cc1cc(C(n2cnc(C(F)(F)F)c2)(C(F)(F)F)C(F)(F)F)cc(C)c1NC(=O)c1cccc(NC(=O)c2cccnc2Cl)c1 [2-142] | 100% | –
34 | CCc1cc(C(n2cc(Cl)cn2)(C(F)(F)F)C(F)(F)F)cc(C)c1NC(=O)c1cccc(NC(=O)c2ccc(F)cc2)c1 [2-36] | 100% | –
35 | Cc1cc(C(n2ccc(Cl)n2)(C(F)(F)F)C(F)(F)F)cc(C)c1NC(=O)c1cccc(NC(=O)c2cccnc2Cl)c1 [2-7] | – | 100%
36 | CCc1cc(C(OCC(F)(F)F)(C(F)(F)F)C(F)(F)F)cc(C)c1NC(=O)c1cccc(N)c1 [11-26] | 100% | –
37 | O=C(Nc1c(Br)cc(C(c2ccccc2)(n2ccc(C(F)(F)F)n2)C(F)(F)F)cc1Br)c1cccc(NC(=O)c2cccnc2Cl)c1 (single isomer, unassigned) [2-99] | 100% | –
38 | CCc1cc(C(Oc2ccnc(C(F)(F)F)c2)(C(F)(F)F)C(F)(F)F)cc(C)c1NC(=O)c1cccc(NC(=O)c2cccnc2Cl)c1 [1-112] | 100% | –
39 | Cc1cc(C(n2cc(I)c(C(F)(F)F)n2)(C(F)(F)F)C(F)(F)F)cc(C)c1NC(=O)c1cccc(NC(=O)c2cccnc2Cl)c1 [2-119] | – | 100%
40 | CCc1cc(C(ON=Cc2ccccc2)(C(F)(F)F)C(F)(F)F)cc(C)c1NC(=O)c1cccc(NC(=O)c2cccnc2Cl)c1 [1-125] | 100% | –
41 | Cc1cc(C(n2ccc(Br)n2)(C(F)(F)F)C(F)(F)F)cc(C)c1NC(=O)c1cccc(NC(=O)c2cccnc2Cl)c1 [2-76, N-[3-({4-[2-(3-bromo-1H-pyrazol-1-yl)-1,1,1,3,3,3-hexafluoropropan-2-yl]-2,6-dimethylphenyl}carbamoyl)phenyl]-2-chloropyridine-3-carboxamide] | 100% | –
42 | CCc1cc(C(n2cc(Cl)cn2)(C(F)(F)F)C(F)(F)F)cc(C)c1NC(=O)c1cccc(NC(=O)c2c(F)cccc2F)c1 [2-40] | 100% | –
43 | O=C(Nc1c(Br)cc(C(c2ccccc2)(n2ccc(C(F)(F)F)n2)C(F)(F)F)cc1Br)c1cccc(NC(=O)c2cccnc2Cl)c1 (single isomer, unassigned) [2-100] | – | 100%
44 | Cc1cc(C(n2ccc(C(Cl)Cl)n2)(C(F)(F)F)C(F)(F)F)cc(C)c1NC(=O)c1cccc(NC(=O)c2cccnc2Cl)c1 [2-106] | 100% | –
45 | Cc1cc(C(Oc2ccc(C#N)cc2)(C(F)(F)F)C(F)(F)F)cc(C)c1NC(=O)c1cccc(NC(=O)c2cccnc2Cl)c1 [1-180] | 100% | –
46 | CCc1cc(C(Oc2ccc(Cl)nc2)(C(F)(F)F)C(F)(F)F)cc(C)c1NC(=O)c1cccc(NC(=O)c2cccnc2Cl)c1 [1-181] | 100% | –
47 | Cc1cc(C(Oc2ccnc(C(F)(F)F)c2)(C(F)(F)F)C(F)(F)F)cc(C)c1NC(=O)c1cccc(NC(=O)c2cccnc2Cl)c1 [1-111] | 100% | –
48 | Cc1cc(C(Oc2cccc(C(F)(F)F)c2)(C(F)(F)F)C(F)(F)F)cc(C)c1NC(=O)c1cccc(NC(=O)c2cccnc2Cl)c1 [1-167] | 100% | –
49 | Cc1cc(C(n2nc(C(F)(F)F)cc2C(F)(F)F)(C(F)(F)F)C(F)(F)F)cc(C)c1NC(=O)c1cccc(NC(=O)c2cccnc2F)c1 [2-125] | 100% | –
